According to patent US7511145B2 (Genelabs Technologies, Inc., priority 2003, dated 2009):

Molecular target: T1, HCV-NS5b (Hepatitis C virus genotype 1b, UniProt Q9WMX2)
T1 construct: (His)6 (C); made in house; host or cells: XL-1 cells (E. coli), IPTG-inducible plasmid, nickel-NTA purification
Experiment: HCV-NS5b enzyme assay (incorporation of radiolabeled UTP)
Type: biochemical
Conditions: for inhibition at 100 µM: read-out: % inh@100, enzyme inhibition at compound concentration of 100 uM
Method in brief: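 Percent inhibition, background-corrected against uninhibited control, was measured at 100 and 33 uM compound. Incorporation of [3H]-UTP (10 μM each NTP) into biotinylated HCV-template RNA, 37° C for 2 h, pH 7.5, scintillation proximity. Enzyme: C-terminally truncated (21 aa), His6-tagged NS5b from XL-1.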

[1] = enzyme inhibition at compound concentration of 33 uM

O=C(O)c1ccc2c(c1)nc(-c1ccc3nc(-c4ccccc4)cc(Oc4ccc5ccc(O)cc5c4)c3c1)n2C1CCCCC1 [Compound 509, 1-cyclohexyl-2-[4-(7-hydroxy-naphthalen-2-yloxy)-2-phenyl-quinolin-6-yl]-1H-benzoimidazole-5-carboxylic acid]
inhibition at 33 µM [1]: 100%
inhibition at 100 µM: 101%

O=C(O)c1ccc2c(c1)nc(-c1ccc3nc(C(=O)Nc4ccc(Cl)cc4)ccc3c1)n2C1CCCCC1 [Compound 510, 2-[2-(4-Chlorophenylcarbamoyl)quinolin-6-yl]-1-cyclohexyl-1H-benzimidazole-5-carboxylic acid]
inhibition at 33 µM [1]: 99.5%
inhibition at 100 µM: 100%

CC(C)[C@H](NC(=O)c1ccc2cc(-c3nc4cc(C(=O)O)ccc4n3C3CCCCC3)ccc2n1)C(N)=O [Compound 511, 2-[2-(1-Carbamoyl-2-methylpropylcarbamoyl)quinolin-6-yl]-1-cyclohexyl-1H-benzimidazole-5-carboxylic acid]
inhibition at 33 µM [1]: 78.4%
inhibition at 100 µM: 95%

C[C@@H](O)[C@H](NC(=O)c1ccc2c(c1)nc(-c1ccc3nc(-c4ccccc4)cnc3c1)n2C1CCCCC1)C(=O)O [Compound 512, 2-{[1-Cyclohexyl-2-(2-phenyl-quinoxalin-6-yl)-1H-benzoimidazole-5-carbonyl]-amino}-3-hydroxy-butyric acid]
inhibition at 33 µM [1]: 78.9%
inhibition at 100 µM: 97.9%

CC(C)C[C@H](NC(=O)c1ccc2c(c1)nc(-c1ccc3nc(-c4ccccc4)cnc3c1)n2C1CCCCC1)C(=O)O [Compound 513, 2-{[1-Cyclohexyl-2-(2-phenyl-quinoxalin-6-yl)-1H-benzoimidazole-5-carbonyl]-amino}-4-methyl-pentanoic acid]
inhibition at 33 µM [1]: 93.2%
inhibition at 100 µM: 95.9%

O=C(c1ccc2c(c1)nc(-c1cc3ccc(-c4ccccc4-c4ccc(Cl)cc4)nc3cc1F)n2C1CCCCC1)N1CCC(O)CC1 [Compound 514, {2-[2-(4′-Chloro-biphen-2-yl]-7-fluoro-quinolin-6-yl]-1-cyclohexyl-1H-benzoimidazol-5-yl}-(4-hydroxy-piperidin-1-yl)-methanone]
inhibition at 33 µM [1]: 89.6%
inhibition at 100 µM: 91.9%

CSCC[C@H](NC(=O)c1ccc2c(c1)nc(-c1ccc3nc(-c4ccccc4)cnc3c1)n2C1CCCCC1)C(=O)O [Compound 515, 2-{[1-Cyclohexyl-2-(2-phenyl-quinoxalin-6-yl)-1H-benzoimidazole-5-carbonyl]-amino}-4-methylsulfanyl-butyric acid]
inhibition at 33 µM [1]: 81.9%
inhibition at 100 µM: 88.3%

O=C(N[C@@H](Cc1c[nH]c2ccc(O)cc12)C(=O)O)c1ccc2c(c1)nc(-c1ccc3cc(-c4ccccc4)cnc3c1)n2C1CCCCC1 [Compound 516, 2-{[1-cyclohexyl-2-(3-phenyl-quinolin-7-yl)-1H-benzoimidazole-5-carbonyl]-amino}-3-(5-hydroxy-1H-indol-3-yl)-propionic acid]
inhibition at 33 µM [1]: 99.3%
inhibition at 100 µM: 100%

CC(C)[C@H](NC(=O)c1ccc2c(c1)nc(-c1ccc3nc(-c4ccccc4)cnc3c1)n2C1CCCCC1)C(=O)O [Compound 517, 2-{[1-Cyclohexyl-2-(2-phenyl-quinoxalin-6-yl)-1H-benzoimidazole-5-carbonyl]-amino}-3-methyl-butyric acid]
inhibition at 33 µM [1]: 81%
inhibition at 100 µM: 97.8%

NC(=O)C[C@H](NC(=O)c1ccc2c(c1)nc(-c1ccc3nc(-c4ccccc4)cnc3c1)n2C1CCCCC1)C(=O)O [Compound 518, 2-{[1-Cyclohexyl-2-(2-phenyl-quinoxalin-6-yl)-1H-benzoimidazole-5-carbonyl]-amino}-succinamic acid]
inhibition at 33 µM [1]: 76%
inhibition at 100 µM: 97.8%

O=C(N[C@@H](Cc1ccc(O)cc1)C(=O)O)c1ccc2c(c1)nc(-c1ccc3nc(-c4ccccc4)cnc3c1)n2C1CCCCC1 [Compound 519, 2-{[1-Cyclohexyl-2-(2-phenyl-quinoxalin-6-yl)-1H-benzoimidazole-5-carbonyl]-amino}-3-(4-hydroxy-phenyl)-propionic acid]
inhibition at 33 µM [1]: 96.9%
inhibition at 100 µM: 99.1%

O=C(O)[C@@H]1Cc2ccccc2CN1C(=O)c1ccc2c(c1)nc(-c1ccc3nc(-c4ccccc4)cnc3c1)n2C1CCCCC1 [Compound 520, 2-[1-Cyclohexyl-2-(2-phenyl-quinoxalin-6-yl)-1H-benzoimidazole-5-carbonyl]-1,2,3,4-tetrahydro-isoquinoline-3-carboxylic acid]
inhibition at 33 µM [1]: 94.8%
inhibition at 100 µM: 98.9%

CN1CCN(C(=O)c2ccc3c(c2)nc(-c2cc4ccc(-c5ccccc5-c5ccc(Cl)cc5)nc4cc2F)n3C2CCCCC2)CC1 [Compound 521, {2-[2-(4′-Chloro-biphen-2-yl)-7-fluoro-quinolin-6-yl]-1-cyclohexyl-1H-benzoimidazol-5-yl}-(4-methyl-piperazin-1-yl)-methanone]
inhibition at 33 µM [1]: 84.8%
inhibition at 100 µM: 91.4%

CN1CCN(C(=O)c2ccc3c(c2)nc(-c2cc4ccc(-c5ccccc5-c5ccccc5)nc4cc2F)n3C2CCCCC2)CC1 [Compound 522, [2-(2-Biphen-2-yl-7-fluoro-quinolin-6-yl)-1-cyclohexyl-1H-benzoimidazol-5-yl]-(4-methyl-piperazin-1-yl)-methanone]
inhibition at 33 µM [1]: 76.7%
inhibition at 100 µM: 74.2%

N=C(N)NCCC[C@H](NC(=O)c1ccc2c(c1)nc(-c1ccc3nc(-c4ccccc4)cnc3c1)n2C1CCCCC1)C(=O)O [Compound 523, 2-{[1-Cyclohexyl-2-(2-phenyl-quinoxalin-6-yl)-1H-benzoimidazole-5-carbonyl]-amino}-5-guanidino-pentanoic acid]
inhibition at 33 µM [1]: 87.1%
inhibition at 100 µM: 95%

O=C(NCCS(=O)(=O)O)c1ccc2c(c1)nc(-c1ccc3nc(-c4ccccc4)cnc3c1)n2C1CCCCC1 [Compound 524]
% inh@33 [1]: 74.09%
% inh@100 (enzyme inhibition at compound concentration of 100 uM): 93.58%

COc1ccc(-c2ccc(Cl)cc2)c(-c2ccc3cc(-c4nc5cc(-c6nnn[nH]6)ccc5n4C4CCCCC4)ccc3n2)c1 [Compound 525, 2-(4′-chloro-4-methoxy-biphen-2-yl)-6-[1-cyclohexyl-5-(1H-tetrazol-5-yl)-1H-benzoimidazol-2-yl]-quinoline]
inhibition at 33 µM [1]: 101%
inhibition at 100 µM: 101%

O=C(O)c1ccc2cc(NC(=O)c3ccc4c(c3)nc(-c3ccc5nc(-c6ccccc6)cnc5c3)n4C3CCCCC3)ccc2c1 [Compound 526, 6-{[1-Cyclohexyl-2-(2-phenyl-quinoxalin-6-yl)-1H-benzoimidazole-5-carbonyl]-amino}-naphthalene-2-carboxylic acid]
inhibition at 33 µM [1]: 96.8%
inhibition at 100 µM: 99%

COc1ccc(-c2ccc(Cl)cc2)c(-c2ccc3cc(-c4nc5cc(C(=O)O)ccc5n4C(C)C)ccc3n2)c1 [Compound 527, 2-[2-(4′-chloro-4-methoxy-biphen-2-yl)-quinolin-6-yl]-1-isopropyl-1H-benzoimidazole-5-carboxylic acid]
inhibition at 33 µM [1]: 99.4%
inhibition at 100 µM: 101%

COc1ccc(-c2ccc(Cl)cc2)c(-c2ccc3cc(-c4nc5cc(C(=O)O)ccc5n4C4CC4)ccc3n2)c1 [Compound 528, 2-[2-(4′-chloro-4-methoxy-biphen-2-yl)-quinolin-6-yl]-1-cyclopropyl-1H-benzoimidazole-5-carboxylic acid]
inhibition at 33 µM [1]: 100%
inhibition at 100 µM: 101%

COc1ccc(-c2ccc(Cl)cc2)c(-c2ccc3cc(-c4nc5cc(C(=O)O)ccc5n4C4CCCC4)ccc3n2)c1 [Compound 529, 2-[2-(4′-chloro-4-methoxy-biphen-2-yl)-quinolin-6-yl]-1-cyclopentyl-1H-benzoimidazole-5-carboxylic acid]
inhibition at 33 µM [1]: 99.2%
inhibition at 100 µM: 99.8%

COc1ccc(-c2ccc(Cl)cc2)c(-c2ccc3cc(-c4nc5cc(C(=O)O)ccc5n4CC(C)C)ccc3n2)c1 [Compound 530, 2-[2-(4′-Chloro-4-methoxy-biphen-2-yl)-quinolin-6-yl]-1-isobutyl-1H-benzoimidazole-5-carboxylic acid]
inhibition at 33 µM [1]: 98.2%
inhibition at 100 µM: 98.2%

COc1ccc(-c2ccc(Cl)cc2)c(-c2ccc3cc(-c4nc5cc(C(=O)O)ccc5n4CC4CC4)ccc3n2)c1 [Compound 531, 2-[2-(4′-chloro-4-methoxy-biphen-2-yl)-quinolin-6-yl]-1-cyclopropylmethyl-1H-benzoimidazole-5-carboxylic acid]
inhibition at 33 µM [1]: 100%
inhibition at 100 µM: 99.3%

COc1ccc(-c2ccc(Cl)cc2)c(-c2ccc3cc(-c4nc5cc(C(=O)O)ccc5n4CCC(C)C)ccc3n2)c1 [Compound 532, 2-[2-(4′-chloro-4-methoxy-biphen-2-yl)-quinolin-6-yl]-1-(3-methyl-butyl)-1H-benzoimidazole-5-carboxylic acid]
inhibition at 33 µM [1]: 99.6%
inhibition at 100 µM: 98.8%

COc1ccc(-c2ccc(Cl)cc2)c(-c2ccc3cc(-c4nc5cc(C(=O)O)ccc5n4CCN(C)C)ccc3n2)c1 [Compound 533, 2-[2-(4′-chloro-4-methoxy-biphen-2-yl)-quinolin-6-yl]-1-(2-dimethylamino-ethyl)-1H-benzoimidazole-5-carboxylic acid]
inhibition at 33 µM [1]: 56.8%
inhibition at 100 µM: 89.8%

CCn1c(-c2ccc3nc(-c4cc(OC)ccc4-c4ccc(Cl)cc4)ccc3c2)nc2cc(C(=O)O)ccc21 [Compound 534, 2-[2-(4′-chloro-4-methoxy-biphen-2-yl)-quinolin-6-yl]-1-ethyl-1H-benzoimidazole-5-carboxylic acid]
inhibition at 33 µM [1]: 90.1%
inhibition at 100 µM: 101%

O=C(O)c1cnc2c(c1)nc(-c1ccc3nc(-c4cc(O)ccc4-c4ccc(Cl)cc4)ccc3c1)n2C1CCCCC1 [Compound 535, 2-[2-(4′-chloro-4-hydroxy-biphen-2-yl)-quinolin-6-yl]-3-cyclohexyl-3H-imidazo[4,5-b]pyridine-6-carboxylic acid]
inhibition at 33 µM [1]: 101%
inhibition at 100 µM: 100%
